The text below walks through data of patent publication US20030040114A1, “SMALL MOLECULE MODULATION OF RIBOZYMES” (Warner-Lambert Company,, priority 1996, published 2003).

Starred links: 1 amine or outer side, 2 acyl side, 3 side chain; linkers in the order of their positions; H or OH if unused. Positions of bridges follow the written chain, without caps; N, C: chain ends. Non-standard residues stand in square brackets, D forms with d. Residues, ends and D or L forms follow the SMILES beside them. *: point of attachment. X1 = NC1=N[C@@H]([C@H](N[*:1])C(=O)[*:2])C[C@H](O)N1; ΔAla(Z-3-ureido) = NC(=O)N/C=C(\N)C(=O)O; β3hOrn = NCCC[C@H](N)CC(=O)*; Dap = NC[C@H](N)C(=O)O

Assay [1] relates to self-splicing Pneumocystis carinii Group I intron RNA. Description: Multiple-loading gel electrophoresis assay for self-splicing Group I intron. Type of assay: biochemical. The conditions noted are these: single concentration 20 μM; four repeats; FIG. 6. As for the experimental part:
As another example of a separation method useful in the present invention, a high-throughput gel electrophoresis assay with multiple loading capability is used in studies of self-splicing Group I introns. To be specific, the reaction sample, prepared similarly as described in the filtration assay, was loaded on a denaturing polyacrylamide gel (7 M urea, 6% polyacrylamide) and electrophoresed for 1 hour at room temperature. Due to their lengths, the ^32P-labeled products of the self-splicing introns can be readily distinguished from the ^32P-GTP on a polyacrylamide gel. On a single polyacrylamide gel, usually three or four repetitive loadings of different samples into the same wells at discrete times present no interference between samples. […] After a total of 3 hours of electrophoresis, the desired products are well-resolved in all samples regardless of the time of loading.
Each sample contains the same self-splicing reaction solution as described in the previous section (32 μL of precursor RNA in self-splicing buffer, 2 μL of DMSO or compound, and 6 μL solution of α-^32P-GTP). As described previously, the products of the self-splicing reactions are 5′-end labeled intron-containing 439-nt RNA (from the first step) and 390-nt RNA (from the second step). These large RNA fragments can be readily separated from the starting material, ^32P-GTP. After splicing reactions, a total of 20 samples were loaded on a polyacrylamide gel three times (first loading at time 0, then two more loadings at 1, and 2 hours after the first loading, respectively). […] In this gel electrophoresis assay, for the purpose of quantitation of reaction yields, appropriate ^32P-labeled RNA fragments can be introduced to each sample as an internal standard immediately prior to loading. The gels containing self-splicing products and internal standards separated according to their different mobilities can be dried and quantitated by a phosphor imager (Phosphoimager, Molecular Dynamics). […]

The test system is the same in assay [2]. Description: Filtration assay for self-splicing Group I intron (96-well, 32P-GTP incorporation, TCA precipitation). It is filed as biochemical. The conditions noted are these: single concentration 20 μM; four repeats; FIG. 6. As for the experimental part: A high-throughput screening assay for self-splicing Group I introns using 96-well format filter plates is disclosed. Nonradioactive, intron-containing precursor RNA is incubated with α-^32P-labeled GTP in the absence or presence of small molecules. During the first step of Group I intron splicing, ^32P-GTP is covalently ligated to the 5′ terminus of the intron. Subsequently, the intron-containing products of both the first (439-nt RNA) and the second (390-nt RNA) steps are radioactively labeled at the 5′-end with ^32P isotopes. Free ^32P-GTP and the longer ^32P-labeled (acid-precipitable) RNA products can be readily separated through trichloroacetic acid precipitation and subsequent filtration through nitrocellulose membrane. The efficiency of inhibition can be followed by measuring the amount of the radioactivity retained on the filter membrane. In the control experiment, the spliced products containing 5′-^32P GMP will retain on the membrane. If the first step (5′-cleavage) is inhibited by a small molecule, incorporation of ^32P-GTP to the precursor RNA will be inhibited and, therefore, a decreased amount of radioactivity will be found on the membrane.
In each well of a 96-well U-bottom microtiter plate, 32 μL of precursor RNA (in self-splicing buffer 50 mM Tris-HCl, pH 7.5, 10 mM (NH4)2SO4, 10 mM MgCl2, 5 mM spermidine, and 5% glycerol) was added with 2 μL of a small organic compound in dimethylsulfoxide (DMSO) and the mixture incubated at room temperature for 5 minutes. […] The filter was allowed to dry and the retained radioactivities were determined using scintillation counting (Wallac Microbeta Counter). […]
Column 1 represents the results of eight repeats of the self-splicing reactions in the absence of any inhibitors while Column 12 represents the data of eight repeats of solution containing ^32P-GTP only. […] The results of a total of 18 plates (a total of 1,440 samples) have been analyzed and the statistical distribution of the inhibitory activities is shown in FIG. 4. […]

Consider `N=C(N)c1ccc(OCCCCCOc2ccc(C(=N)N)cc2)cc1` [pentamidine], for which, in assay [1], the “Self-splicing inhibitory effect, gel electrophoresis assay” value was “either low or modest activity”. Besides, the “Self-splicing inhibitory effect, filtration assay” value in assay [2] is recorded as “either low or modest activity”.

With `[H]/N=C(/N)N[C@H]1[C@H](O)[C@@H](O)[C@H](O[C@@H]2O[C@@H](C)[C@](O)(C=O)[C@H]2O[C@@H]2O[C@@H](CO)[C@H](O)[C@@H](O)[C@@H]2NC)[C@@H](N/C(N)=N\[H])[C@@H]1O` [streptomycin], the “Self-splicing inhibitory effect, gel electrophoresis assay” value in assay [1] is “either low or modest activity”. For the same molecule, the “Self-splicing inhibitory effect, filtration assay” value in assay [2] is recorded as “either low or modest activity”.

For the molecule `NCCC[C@H](N)CC(=O)N[C@H]1CNC(=O)[C@H]([C@H]2C[C@H](O)NC(N)=N2)NC(=O)/C(=C/NC(N)=O)NC(=O)[C@H](CO)NC(=O)[C@H](CO)NC1=O` [viomycin, Viomycin] (β3hOrn-[Dap]SS[ΔAla(Z-3-ureido)][X1]; lactam 1-C), the “Self-splicing inhibitory effect, gel electrophoresis assay” value in assay [1] is “either low or modest activity”. Besides, in assay [2], the “Self-splicing inhibitory effect, filtration assay” value is “either low or modest activity”.
